Patent US20070117743A1, “New antitumoral compounds” (priority 2003, published 2007)
Where a SMILES comes first, the peptide text is derived from it. Bridges are numbered along the chain shown (N, C = ends). [ ]: non-standard residue; d: D form. The star is where a group is joined. d(aIle) = CC[C@H](C)[C@@H](N)C(=O)O; d(aThr) = C[C@@H](O)[C@@H](N)C(=O)O; Hexanoyl(5-Me) = CC(C)CCCC(=O)*; Orn = NCCC[C@H](N)C(=O)O; Dhb = C/C=C(\N)C(=O)O

Assays:
Type in all cases: cell-based, human
[1] = tested on: IGROV-ET; experiment: SRB colorimetric assay of cell growth and viability, IGROV-ET; details: 48 hours exposure; for CC50: read-out: LC50 IGROV-ET
[2] = tested on: PANC-1; experiment: SRB colorimetric assay of cell growth and viability, PANC-1; details: 48 hours exposure; for CC50: read-out: LC50 PANC-1
[3] = tested on: SK-MEL-28; experiment: SRB colorimetric assay of cell growth and viability, SK-MEL-28; details: 48 hours exposure; for CC50: read-out: LC50 MEL-28
[4] = tested on: HT-29; experiment: SRB colorimetric assay of cell growth and viability, HT-29; details: 48 hours exposure; for GI50: read-out: GI50 HT-29; for CC50: read-out: LC50 HT-29
[5] = tested on: LNCaP; experiment: SRB colorimetric assay of cell growth and viability, LNCaP; details: 48 hours exposure; for GI50: read-out: GI50 LN-caP; for CC50: read-out: LC50 LN-caP
[6] = tested on: LoVo; experiment: SRB colorimetric assay of cell growth and viability, LoVo; details: 48 hours exposure; for CC50: read-out: LC50 LOVO
[7] = tested on: A-549; experiment: SRB colorimetric assay of cell growth and viability, A-549; details: 48 hours exposure; for GI50: read-out: GI50 A-549; for CC50: read-out: LC50 A-549
[8] = tested on: HeLa; experiment: SRB colorimetric assay of cell growth and viability, HeLa; details: 48 hours exposure; for CC50: read-out: LC50 HELA
[9] = tested on: K-562; experiment: SRB colorimetric assay of cell growth and viability, K-562; details: 48 hours exposure; for CC50: read-out: LC50 K-562
[10] = tested on: HeLa-APL; experiment: SRB colorimetric assay of cell growth and viability, HeLa-APL; details: 48 hours exposure; for CC50: read-out: LC50 HELA-APL
[11] = tested on: IGROV-1; experiment: SRB colorimetric assay of cell growth and viability, IGROV-1; details: 48 hours exposure
[12] = tested on: SK-BR-3; experiment: SRB colorimetric assay of cell growth and viability, SK-BR-3; details: 48 hours exposure
[13] = tested on: DU-145; experiment: SRB colorimetric assay of cell growth and viability, DU-145; details: 48 hours exposure

With C/C=C1\NC(=O)[C@H](Cc2ccccc2)NC(=O)[C@@H](C(C)C)NC(=O)[C@@H]([C@@H](C)CC)NC(=O)[C@H](NC(=O)[C@H](NC(=O)[C@H](CCCN)NC(=O)[C@H]2CCCN2C(=O)[C@H](NC(=O)[C@H](Cc2ccccc2)NC(=O)[C@@H](NC(=O)[C@H](NC(=O)CCCC(C)C)C(C)C)[C@@H](C)O)C(C)C)[C@@H](C)CC)[C@@H](C)OC(=O)[C@H](C(C)C)NC1=O [Compound 43, [Phe^11]-KF] ({Hexanoyl(5-Me)}-[dV]TF[dV][dP][Orn][d(aIle)][d(aThr)][d(aIle)][dV]F[Dhb]V; ester 8-C) the GI50 [1] was 0.233 µM, the “TGI IGROV-ET” value [1] was 6.28E−07 Molar and the CC50 [1] was 2.53 µM. The GI50 [2] was 1.79 µM, the “TGI PANC-1” value [2] was 4.86E−06 Molar and the CC50 [2] was 6.55 µM. For the same compound, the GI50 [3] was 0.78 µM, the “TGI MEL-28” value [3] was 1.66E−06 Molar and the CC50 [3] was 3.57 µM. The “TGI HT-29” value [4] was 2.73E−07 Molar, the GI50 [4] was 0.141 µM and the CC50 [4] was 0.531 µM. The “TGI LN-caP” value [5] was 1.97E−06 Molar, the GI50 [5] was 0.852 µM and the CC50 [5] was 4.55 µM. The GI50 [6] was 0.105 µM, the “TGI LOVO” value [6] was 2.22E−07 Molar and the CC50 [6] was 0.471 µM. The “TGI A-549” value [7] was 1.40E−06 Molar, the GI50 [7] was 0.521 µM and the CC50 [7] was 3.41 µM. For the same compound, the GI50 [8] was 0.397 µM, the “TGI HELA” value [8] was 1.32E−06 Molar and the CC50 [8] was 3.95 µM. The GI50 [9] was 1.23 µM, the “TGI K-562” value [9] was 2.18E−06 Molar and the CC50 [9] was 3.85 µM. The GI50 [10] was 0.793 µM, the “TGI HELA-APL” value [10] was 1.77E−06 Molar and the CC50 [10] was 3.93 µM. The GI50 [11] was 0.241 µM, the LC50 (concentration causing 50% net cell killing) [11] was 3.68 µM and the “TGI IGROV” value [11] was 7.67E−07 Molar. The GI50 [12] was 0.119 µM, the LC50 [12] was 0.634 µM and the “TGI SK-BR-3” value [12] was 2.75E−07 Molar. For the same compound, the GI50 [13] was 0.476 µM, the LC50 (concentration causing 50% net cell kill) [13] was 3.22 µM and the “TGI DU-145” value [13] was 1.34E−06 Molar.
With C/C=C1\NC(=O)[C@H](Cc2ccccc2)NC(=O)[C@@H](C(C)C)NC(=O)[C@@H]([C@@H](C)CC)NC(=O)[C@H](NC(=O)[C@H](NC(=O)[C@H](CCCN)NC(=O)[C@H]2CCCN2C(=O)[C@H](NC(=O)[C@@H](NC(=O)[C@@H](NC(=O)[C@H](NC(=O)c2ccc(C)cc2)C(C)C)[C@@H](C)O)C(C)C)C(C)C)[C@@H](C)CC)[C@@H](C)OC(=O)[C@H](C(C)C)NC1=O [Compound 19, [p-MeBza^14]-KF] the GI50 [1] was 0.439 µM, the “TGI IGROV-ET” value [1] was 1.44E−06 Molar and the GI50 [2] was 2.06 µM. The GI50 [3] was 1.16 µM, the “TGI MEL-28” value [3] was 2.24E−06 Molar and the “TGI HT-29” value [4] was 1.12E−06 Molar. For the same compound, the GI50 [4] was 0.314 µM, the “TGI LN-caP” value [5] was 2.55E−06 Molar and the GI50 [5] was 1.02 µM. For the same compound, the GI50 [6] was 0.12 µM, the “TGI LOVO” value [6] was 2.35E−07 Molar and the “TGI A-549” value [7] was 1.71E−06 Molar. For the same compound, the GI50 [7] was 0.775 µM, the GI50 [8] was 0.849 µM and the “TGI HELA” value [8] was 1.95E−06 Molar. For the same compound, the GI50 [9] was 0.762 µM, the “TGI K-562” value [9] was 2.01E−06 Molar and the GI50 [10] was 0.923 µM. The “TGI HELA-APL” value [10] was 2.00E−06 Molar, the GI50 [11] was 0.343 µM and the “TGI IGROV” value [11] was 1.37E−06 Molar. The GI50 [12] was 0.17 µM, the “TGI SK-BR-3” value [12] was 3.77E−07 Molar and the GI50 [13] was 0.775 µM. For the same compound, the “TGI DU-145” value [13] was 1.73E−06 Molar.
For C/C=C1\NC(=O)[C@H](Cc2ccccc2)NC(=O)[C@@H](C(C)C)NC(=O)[C@@H]([C@@H](C)CC)NC(=O)[C@H](NC(=O)[C@H](NC(=O)[C@H](CCCN)NC(=O)[C@H]2CCCN2C(=O)[C@H](NC(=O)[C@@H](NC(=O)[C@@H](NC(=O)[C@H](NC(=O)Cc2cc(F)cc(F)c2)C(C)C)[C@@H](C)O)C(C)C)C(C)C)[C@@H](C)CC)[C@@H](C)OC(=O)[C@H](C(C)C)NC1=O [Compound 22, [3,5-dFPhAc^14]-KF], the GI50 [1] was 1.07 µM, the “TGI IGROV-ET” value [1] was 2.32E−06 Molar and the CC50 [1] was 5.01 µM. For the same compound, the GI50 [2] was 5.45 µM, the “TGI PANC-1” value [2] was 6.58E−06 Molar and the CC50 [2] was 6.58 µM. For the same compound, the GI50 [3] was 2.5 µM, the “TGI MEL-28” value [3] was 6.58E−06 Molar and the CC50 [3] was 6.58 µM. The “TGI HT-29” value [4] was 1.94E−06 Molar, the GI50 [4] was 0.888 µM and the CC50 [4] was 4.25 µM. For the same compound, the “TGI LN-caP” value [5] was 6.58E−06 Molar, the GI50 [5] was 1.64 µM and the CC50 [5] was 6.58 µM. For the same compound, the GI50 [6] was 0.288 µM, the “TGI LOVO” value [6] was 1.06E−06 Molar and the CC50 [6] was 3.11 µM. The “TGI A-549” value [7] was 2.16E−06 Molar, the GI50 [7] was 1.17 µM and the CC50 [7] was 3.99 µM. For the same compound, the GI50 [8] was 1.29 µM, the “TGI HELA” value [8] was 3.28E−06 Molar and the CC50 [8] was 6.58 µM. For the same compound, the GI50 [9] was 6.58 µM, the “TGI K-562” value [9] was 6.58E−06 Molar and the CC50 [9] was 6.58 µM. The GI50 [10] was 1.96 µM, the “TGI HELA-APL” value [10] was 6.58E−06 Molar and the CC50 [10] was 6.58 µM. The GI50 [11] was 0.98 µM, the LC50 (concentration causing 50% net cell killing) [11] was 4.57 µM and the “TGI IGROV” value [11] was 2.12E−06 Molar. For the same compound, the GI50 [12] was 0.464 µM, the LC50 [12] was 3.64 µM and the “TGI SK-BR-3” value [12] was 1.45E−06 Molar. For the same compound, the GI50 [13] was 1.43 µM, the LC50 (concentration causing 50% net cell kill) [13] was 6.58 µM and the “TGI DU-145” value [13] was 6.58E−06 Molar.
